Here are results for 98 molecules from ChEMBL document CHEMBL3507680, “University of Dundee, Gates Library screen for HepG2 cell viability”.

Structures are written as SMILES.

The data set can be described thus: Human HepG2 cell viability assay in 384 well format. Type of data set: toxicity, cell-based. On the set-up: dose 125 nL, time 70.5 hour; cytotoxicity at 70.5 h: concentration not given beside the values. The following applies: HepG2 cells, read-out: Inhibition.
For `Cc1noc(C2CCC3(CCN(C(=O)c4cc(C5CC5)on4)CC3)O2)n1` (stereo not drawn), the cytotoxicity at 70.5 h was -0.565%.

For the molecule `CSCCCN1CCCC1c1noc(C)n1` (stereo not drawn), the cytotoxicity at 70.5 h amounted to 1.11%.

Take `CCN1CCCC1CNC(=O)CCSc1ccc2c(c1)OCCO2` (stereo not drawn): the cytotoxicity at 70.5 h is 2.47%.

Take `COc1cccc(CNC(=O)CCNS(=O)(=O)c2ccc(C)cc2)c1`: the cytotoxicity at 70.5 h is -3.42%.

As for `COC[C@@]12CC[C@@H](N3CCOCC3)C[C@H]1CCN(c1cnccn1)C2`, the cytotoxicity at 70.5 h was 13.9%.

In the case of `COc1ccccc1C(=O)N1CCC(O)(c2cccc(C)c2C)CC1`, the cytotoxicity at 70.5 h is 11.7%.

As for `CCn1ncc(S(=O)(=O)NC(C)c2cc(OC)ccc2OC)c1C` (stereo not drawn), the cytotoxicity at 70.5 h is 20.2%.

In the case of `Cc1nc(C)c(CC(=O)N2CCN(CC(C)C)CC2)c(=O)[nH]1`, the cytotoxicity at 70.5 h was found to be 2.2%.

Regarding `Cn1cc(CN2CC[C@H]3C[C@@H](c4nc(C5CC5)cs4)O[C@@H]3C2)cn1`, the cytotoxicity at 70.5 h came to 5.37%.

For the molecule `CC(=O)NCCNC(=O)CNC1CCCN(c2ccc(C)nn2)C1` (stereo not drawn), the cytotoxicity at 70.5 h was 17.7%.

Turning to `COC[C@H](C)Nc1cc(C)c2ccc(SC)cc2n1`, the cytotoxicity at 70.5 h is -8%.

For `O=C(Cn1nnn(-c2cccs2)c1=O)N(CC1CCOC1)C1CC1` (stereo not drawn), the cytotoxicity at 70.5 h was -9.03%.

As for `CC(=O)N[C@@H]1CN(C(=O)c2cc3sccc3[nH]2)C[C@H]1c1ccc(C)o1`, the cytotoxicity at 70.5 h is -3.33%.

Turning to `Cc1nc(COc2ccc(N(C)S(C)(=O)=O)cc2)sc1C`, the cytotoxicity at 70.5 h was 48%.

In the case of `Cc1cnn(CC2CN(CCCS(C)(=O)=O)CCO2)c1` (stereo not drawn), the cytotoxicity at 70.5 h was -0.801%.

For `COc1cccc(CN2CCCC2c2cccc(F)c2)c1OC` (stereo not drawn), the cytotoxicity at 70.5 h is -11.8%.

As for `OC(CN1CCCCCCC1)c1ccc(F)cc1` (stereo not drawn), the cytotoxicity at 70.5 h turned out to be 3.53%.

As to `COc1c(CNCc2cccc(C(=O)N(C)C)c2)c(C)nn1C`, the cytotoxicity at 70.5 h amounted to 5.09%.

`COCCCNc1ncc(-c2cccc(F)c2)c(-c2nccn2C)n1`: the cytotoxicity at 70.5 h was -6.45%.

`COCCNC(=O)[C@@H]1CCO[C@@H]2CCN(Cc3cnn(C)c3)C[C@@H]21`: the cytotoxicity at 70.5 h is -11.1%.

With `CCc1ocnc1C(=O)Nc1ccc2ccn(CCN(C)C)c2c1`, the cytotoxicity at 70.5 h is -13.2%.

As to `Cn1ccnc1C(NCc1csc(Br)c1)c1ccccc1` (stereo not drawn), the cytotoxicity at 70.5 h is -1.31%.

Regarding `COCCN(C(=O)c1cc(-c2ccc(C)s2)[nH]n1)C1CC1`, the cytotoxicity at 70.5 h is -3.98%.

In the case of `O=C(C1CC1)N1CCC2(CCN(Cc3cccc(F)c3)CC2)CC1`, the cytotoxicity at 70.5 h is -0.144%.

Regarding `Cc1cccnc1NC(=O)c1ccc(F)c(S(=O)(=O)NC2CC2)c1`, the cytotoxicity at 70.5 h is -2.44%.

In the case of `COc1ccc(CNCc2ccnc(N3CCOCC3)c2)c(OC)c1`, the cytotoxicity at 70.5 h is -10.2%.

Turning to `Cc1nc(NC(=O)OC(C)(C)C)sc1C(N)=O`, the cytotoxicity at 70.5 h was -2.34%.

As for `COc1ccc(N2CCC(NC(=O)c3ccc(C#N)cc3)CC2)cc1`, the cytotoxicity at 70.5 h was -4.31%.

As to `CC(=O)c1cccc(S(=O)(=O)N2CCC(c3noc(C)n3)CC2)c1`, the cytotoxicity at 70.5 h was -9.37%.

For `CC(C)CN1C(=O)CC[C@H]2CN(C(=O)Cn3ccc(=O)cc3)CC[C@H]21`, the cytotoxicity at 70.5 h came to 21.4%.

As for `COc1ncnc2c1CCN(C(=O)NCc1cccc(F)c1)CC2`, the cytotoxicity at 70.5 h is -6.04%.

In the case of `COc1cccc(OCCCc2cc(C#N)ccn2)c1`, the cytotoxicity at 70.5 h turned out to be 11%.

Turning to `O=C(NCCCN1CCOCC1)c1ccc(Cl)cc1Cl`, the cytotoxicity at 70.5 h was 2.42%.

Take `COCC(=O)N1CCC2(COCc3cnc(N4CCOCC4)nc32)C1` (stereo not drawn): the cytotoxicity at 70.5 h came out at 6.48%.

With `CCn1ccnc1CN1CCN(CC(O)c2ccco2)CC1` (stereo not drawn), the cytotoxicity at 70.5 h was -5.46%.

For `NC(=O)C1CCN(C(=O)c2cccn2Cc2cccs2)CC1`, the cytotoxicity at 70.5 h is -4.99%.

Consider `CC1(C)COCCN1C(=O)CCc1nc(-c2ccccn2)no1`, for which the cytotoxicity at 70.5 h was -18.1%.

`CCCn1ncc(C(=O)N2CCC(N3CCCCC3)CC2)c1C`: the cytotoxicity at 70.5 h was -11.6%.

For the molecule `CCN(C)C(=O)c1ccc(N(C)Cc2cc(-c3ccncc3)no2)nc1`, the cytotoxicity at 70.5 h was -2.26%.

`CO[C@@H]1CCC[C@@H](NC(=O)c2cccc(F)c2)[C@H]1O`: the cytotoxicity at 70.5 h is -1.9%.

For `CN(C)[C@@H]1CCN(C(=O)C2CCOCC2)[C@H]1Cc1ccncc1`, the cytotoxicity at 70.5 h was determined as 6.4%.

As to `CCCS(=O)(=O)N1C[C@H]2C[C@H](C(=O)N(C)C)[C@@H](C1)O2`, the cytotoxicity at 70.5 h was -13.7%.

For the molecule `Cn1ccnc1C1(O)CCN(C(=O)Cc2ccccc2)CC1`, the cytotoxicity at 70.5 h was -6.34%.

With `CC(=O)N[C@@H]1CN(C(=O)c2cnccn2)C[C@H]1c1ccc(C)cc1`, the cytotoxicity at 70.5 h was -11.4%.

As for `CCNc1nc(-c2cccnc2)c(-c2ccnc(NS(C)(=O)=O)n2)s1`, the cytotoxicity at 70.5 h is -8.33%.

Take `OC(COCc1cccs1)Cn1cc(Cl)cn1` (stereo not drawn): the cytotoxicity at 70.5 h was -1.21%.

Take `CN(C(=O)COc1ccc(F)cc1)[C@@H]1CS(=O)(=O)C[C@H]1O`: the cytotoxicity at 70.5 h was -0.138%.

Take `CNS(=O)(=O)c1cccc(C(C)NCc2ccco2)c1` (stereo not drawn): the cytotoxicity at 70.5 h is -8.45%.

For the molecule `c1cc2c(cc1CN1CC[C@H]3[C@H]1CCN3CC1CC1)OCO2`, the cytotoxicity at 70.5 h is -1.51%.

As to `NC(=O)NCC1CCCCN1C(=O)c1cc(F)cc(F)c1` (stereo not drawn), the cytotoxicity at 70.5 h was -2.44%.

Take `COc1ccc(-c2n[nH]cc2CN(C)Cc2ccoc2)c(F)c1`: the cytotoxicity at 70.5 h was -1.92%.

For `CCc1cc(-c2cc[nH]n2)nc(N2CCCC2)n1`, the cytotoxicity at 70.5 h is -7.99%.

As to `Cc1cc(NC(C)c2nncn2C2CCCC2)n2nc(C)cc2n1` (stereo not drawn), the cytotoxicity at 70.5 h was -6.24%.

Consider `Cn1cccc1C(O)CNS(=O)(=O)c1ccccc1F` (stereo not drawn), for which the cytotoxicity at 70.5 h stood at 3.03%.

Take `Cc1ccccc1S(=O)(=O)N1CCCCC1c1ccn[nH]1` (stereo not drawn): the cytotoxicity at 70.5 h was -28.4%.

As to `Cc1nccc(C2CCCCN2Cc2cccc(F)c2)n1` (stereo not drawn), the cytotoxicity at 70.5 h is -12.9%.

As for `CCOc1cccc(CNc2cncc(-n3cccn3)n2)c1`, the cytotoxicity at 70.5 h is -8.59%.

Regarding `COc1cc(N2C[C@H]3CCN(CCN4CCCC4)C[C@H]3C2)ncn1`, the cytotoxicity at 70.5 h is -1.14%.

As for `CCC(CNC(=O)c1cncc(Br)c1)N1CCc2ccccc2C1` (stereo not drawn), the cytotoxicity at 70.5 h was -5.93%.

`CCCc1nc(C(C)(C)NC(=O)C2CC(=O)N(CC)C2)no1` (stereo not drawn): the cytotoxicity at 70.5 h was -13%.

On to `CCCc1nc(CN(CC)C(=O)c2onc3ccccc23)no1`, for which the cytotoxicity at 70.5 h worked out at 17%.

As to `Cc1nc(C2CCCN2C(=O)CN(C)Cc2ccccc2)no1` (stereo not drawn), the cytotoxicity at 70.5 h was -2.86%.

In the case of `O=C(Cc1c[nH]c2ccccc12)N1CCC(Nc2cccnc2)CC1`, the cytotoxicity at 70.5 h was -0.82%.

Take `COCC(=O)N1CCN(C(=O)c2cccs2)C[C@H]1C(=O)OC`: the cytotoxicity at 70.5 h was found to be 1.41%.

Regarding `Cc1nc(C2CCCN(C(=O)c3ccc(OCC4CC4)cc3)C2)no1` (stereo not drawn), the cytotoxicity at 70.5 h was found to be 31%.

Take `Cc1ccc2c(c1)CCC21CCN(CCO)CC1`: the cytotoxicity at 70.5 h is -1.71%.

Regarding `Cn1ccnc1COc1ccc(COC(=O)C2CCCO2)cc1` (stereo not drawn), the cytotoxicity at 70.5 h is 3.75%.

In the case of `Cc1ccccc1C(=O)NC[C@@H]1CCN(C(=O)C2(O)CCCC2)C[C@H]1O`, the cytotoxicity at 70.5 h is -4.64%.

As for `CCn1cnnc1C1CCN(C(=O)c2cccc(C)c2C)CC1`, the cytotoxicity at 70.5 h was determined as 30.1%.

For the molecule `Cc1ccc(-n2nnc(C(=O)NS(C)(=O)=O)c2C2CC2)cc1`, the cytotoxicity at 70.5 h is -9%.

Turning to `O=C(c1c[nH]c2ncccc12)N(Cc1ccco1)C1CCCC1`, the cytotoxicity at 70.5 h was -3.94%.

For the molecule `CN(Cc1nccn1CC(F)(F)F)C(=O)c1ccc(F)cc1F`, the cytotoxicity at 70.5 h is -5.49%.

On to `CC(C)CCN1CCN(Cc2nc(C(C)C)no2)CC1`, for which the cytotoxicity at 70.5 h was -0.333%.

With `CNC(=O)c1ccc(CN2CCN(C3=NCC(C)(C)S3)CC2)cc1`, the cytotoxicity at 70.5 h was determined as 17.7%.

In the case of `FC(F)(F)Cc1noc(CN2CCCC2c2noc(C3CC3)n2)n1` (stereo not drawn), the cytotoxicity at 70.5 h is -8.5%.

As for `N#Cc1cc2c(=O)n(CC(O)C(F)(F)F)ccc2[nH]c1=O` (stereo not drawn), the cytotoxicity at 70.5 h amounted to 3.74%.

Take `CC(C)(C)c1ccn(C2(C(=O)O)CCN(c3ncccc3C#N)CC2)n1`: the cytotoxicity at 70.5 h was -2.37%.

Take `Cc1ccc(CN2CC(O)CN(C(=O)OCC(C)C)CC2=O)cc1` (stereo not drawn): the cytotoxicity at 70.5 h was -4.78%.

For `CCn1cnnc1CNC(=O)N(C)Cc1ccc2c(c1)OCCO2`, the cytotoxicity at 70.5 h was 6.83%.

As for `CC(=O)c1cccc(S(=O)(=O)N2CSCC2C(=O)NCC(F)(F)F)c1` (stereo not drawn), the cytotoxicity at 70.5 h was 5.48%.

Turning to `CCc1nnsc1C(=O)NC(CC(C)C)C(=O)OC` (stereo not drawn), the cytotoxicity at 70.5 h was -7.11%.

On to `Cc1noc(C2CCN(C(=O)CN(C)c3ccc(Cl)cn3)CC2)n1`, for which the cytotoxicity at 70.5 h is -20.9%.

Turning to `Cc1cc(-c2cnc(N3CCCC3)nc2C(C)C)on1`, the cytotoxicity at 70.5 h is -7.72%.

`COc1cccc(C2SCC(=O)Nc3n[nH]cc32)c1OC(C)C` (stereo not drawn): the cytotoxicity at 70.5 h is -20.4%.

Consider `Cc1ccc(OCC2CCCN(C(=O)c3csc(CN(C)C)n3)C2)cc1` (stereo not drawn), for which the cytotoxicity at 70.5 h was -4.88%.

Take `O=C(N[C@@H]1CN(c2ncc(F)cn2)[C@@H]2COC[C@@H]21)c1cscn1`: the cytotoxicity at 70.5 h was -13.8%.

Consider `COCCC(=O)NC1CCN(CC2(c3cccc(F)c3)CCCC2)CC1`, for which the cytotoxicity at 70.5 h came to 0.0702%.

`COc1ncccc1C(=O)N1CCC(c2nnc(C3CC3)o2)CC1`: the cytotoxicity at 70.5 h was 4.57%.

Take `CCc1nc(CN2CCCC(NCc3nnc(C4CC4)o3)C2)no1` (stereo not drawn): the cytotoxicity at 70.5 h amounted to 0.376%.

In the case of `COc1ccsc1C(=O)NCCNc1ccccc1`, the cytotoxicity at 70.5 h is -2.66%.

Turning to `Cc1nn(C)cc1CN1CCCn2nc(CNC(=O)C3CCC3)cc2C1`, the cytotoxicity at 70.5 h is -3.2%.

Consider `Cc1ccc(N2Cc3cnn(Cc4ccc(F)cc4)c3C2)nn1`, for which the cytotoxicity at 70.5 h was -4.14%.

Regarding `COc1ccc(OCCCNCCn2cccn2)cc1`, the cytotoxicity at 70.5 h was found to be 22.8%.

In the case of `CNC(=O)Cc1noc(-c2cc3c(s2)CCCCCC3)n1`, the cytotoxicity at 70.5 h is -7.62%.

As to `CCOCCN1CCO[C@H]2[C@H](OCc3ccccn3)CC[C@@H]21`, the cytotoxicity at 70.5 h is -11%.

On to `O=C1CC[C@H]2[C@H](CCN2c2ncc(F)cn2)N1c1ccccc1`, for which the cytotoxicity at 70.5 h is -5.86%.

`O=C(CNC1CCc2ncnn2C1)N(Cc1cccs1)C1CC1` (stereo not drawn): the cytotoxicity at 70.5 h amounted to 0.341%.

As for `Cc1ccc2c(n1)N(Cc1cccnc1)CCN(C(=O)C1CC1)C2`, the cytotoxicity at 70.5 h amounted to 11.2%.
